This note sets out measurements from paper PMC11881561 (Antimicrobial Agents and Chemotherapy, 2025).

In brackets after ≈: the same amount, converted by molar mass.

Data set [1] addresses T1, KPC-3^D179Y (Klebsiella pneumoniae, UniProt Q9F663, D178Y/H272Y). The data set can be described thus: β-lactam hydrolysis kinetics, purified KPC-3 D179Y. Type of data set: biochemical. The following applies: substrate hydrolysis by KPC-3 D179Y. The protocol: (§1) Measurements to determine kinetic parameters for hydrolysis, and kinetic parameters for inhibition were performed at ambient temperature in PBS (pH 7.4) containing 0.1 mg/mL bovine serum albumin, using a PowerWaveXS plate reader (BioTek).
(§2) Assays to determine Michaelis-Menten kinetic parameters were performed by mixing variable amounts of enzymes (depending on the enzyme-substrate pair), with serial dilutions of different BL substrates and continuously monitoring the reduction in absorbance associated with BL hydrolysis ([28], [36], [40], [41]). Kinetic parameters were determined by plotting initial rates of hydrolysis (v) as a function of substrate concentration [S] and fitting the data to equation 1 using GraphPad Prism,
(§3) (1) v=[Et]×kcat×[S]/KM+[S]
(§4) where [Et] is the enzyme concentration, kcat the turnover number and KM the Michaelis constant.

For data set [2], the target named is T2, KPC-2^D179Y/T243M (Klebsiella pneumoniae, UniProt Q9F663, D178Y/T242M). The data set can be described thus: β-lactam hydrolysis kinetics, purified KPC-2 D179Y/T243M. Type of data set: biochemical. The conditions noted are these: substrate hydrolysis by KPC-2 D179Y/T243M. As to the method: as §1, §2, §3, §4
Data set [3] addresses T3, KPC-3 WT (Klebsiella pneumoniae, UniProt Q9F663, H272Y). Type of data set: biochemical. The conditions noted are these: substrate hydrolysis by KPC-3 WT.
Data set [4] has as its target KPC-3^V240G (Klebsiella pneumoniae, UniProt Q9F663, H272Y/V239G). Type of data set: biochemical.
The target of data set [5] is KPC-2^V240G (Klebsiella pneumoniae, UniProt Q9F663, V239G). Type of data set: biochemical.
Data set [6] addresses T4, KPC-2^D179Y (Klebsiella pneumoniae, UniProt Q9F663, D178Y). The data set can be described thus: β-lactam hydrolysis kinetics, purified KPC-2 D179Y. Type of data set: biochemical. The conditions noted are these: substrate hydrolysis by KPC-2 D179Y. The protocol: as §1, §2, §3, §4
Data set [7] concerns the target T5, KPC-2 WT (Klebsiella pneumoniae, UniProt Q9F663). The conditions noted are these: substrate hydrolysis by KPC-2 WT.
In data set [8] the target is T6, KPC-3^D179Y/T243M (Klebsiella pneumoniae, UniProt Q9F663, D178Y/H272Y/T242M). The data set can be described thus: β-lactam hydrolysis kinetics, purified KPC-3 D179Y/T243M. Type of data set: biochemical. The following applies: substrate hydrolysis by KPC-3 D179Y/T243M. The protocol:
as §1, §2, §3, §4

Data set [9] relates to engineered E. coli strain expressing KPC-3 wt. The data set can be described thus: microbe, parasite or virus in culture. It counts as cell-based. The following applies: Escherichia coli; KPC-3 wt strain; BLIs at fixed 4 μg/mL.
In data set [10] the test system is E. coli control strain lacking a β-lactamase. The data set can be described thus: microbe, parasite or virus in culture. It counts as cell-based. The conditions noted are these: Escherichia coli, no KPC expressed, BLIs at fixed 4 μg/mL.
The test system of data set [11] is engineered E. coli strain expressing KPC-2^V240G. The data set can be described thus: microbe, parasite or virus in culture. Type of data set: cell-based. The following applies: Escherichia coli, BLIs at fixed 4 μg/mL.
In data set [12] the target is T5, KPC-2 WT. The data set can be described thus: biochemical. The following applies: inhibition of CENTA hydrolysis, read-out: Apparent affinity Ki^app.
Data set [13] relates to engineered E. coli strain expressing KPC-3^D179Y. The data set can be described thus: microbe, parasite or virus in culture. Type of data set: cell-based. The following applies: Escherichia coli, BLIs at fixed 4 μg/mL.
The test system of data set [14] is engineered E. coli strain expressing KPC-3^D179Y/T243M. The data set can be described thus: microbe, parasite or virus in culture. It counts as cell-based. The conditions noted are these: Escherichia coli, BLIs at fixed 4 μg/mL.
The test system of data set [15] is engineered E. coli strain expressing KPC-3^V240G. The data set can be described thus: microbe, parasite or virus in culture. Type of data set: cell-based. The following applies: Escherichia coli, BLIs at fixed 4 μg/mL.
Data set [16] relates to engineered E. coli strain expressing KPC-2^D179Y/T243M. The data set can be described thus: microbe, parasite or virus in culture. It counts as cell-based. The following applies: Escherichia coli, BLIs at fixed 4 μg/mL.
Data set [17] addresses T3, KPC-3 WT. The data set can be described thus: biochemical. The following applies: inhibition of CENTA hydrolysis, read-out: Apparent affinity Ki^app.
Data set [18] concerns engineered E. coli strain expressing KPC-2^D179Y. The data set can be described thus: microbe, parasite or virus in culture. It counts as cell-based. The conditions noted are these: Escherichia coli, BLIs at fixed 4 μg/mL.
In data set [19] the test system is engineered E. coli strain expressing KPC-2 wt. The data set can be described thus: microbe, parasite or virus in culture. It counts as cell-based. The following applies: Escherichia coli; KPC-2 wt strain; BLIs at fixed 4 μg/mL.
The target in data set [20] is T4, KPC-2^D179Y. The data set can be described thus: biochemical. The following applies: ND = no significant inhibition at the highest concentration tested, read-out: Apparent affinity Ki^app.
The target in data set [21] is T1, KPC-3^D179Y. The data set can be described thus: biochemical. The conditions noted are these: ND = no significant inhibition at the highest concentration tested, read-out: Apparent affinity Ki^app.
Data set [22] concerns the target T2, KPC-2^D179Y/T243M. The data set can be described thus: biochemical. The conditions noted are these: ND = no significant inhibition at the highest concentration tested, read-out: Apparent affinity Ki^app.
The target of data set [23] is T6, KPC-3^D179Y/T243M. The data set can be described thus: biochemical. The following applies: ND = no significant inhibition at the highest concentration tested, read-out: Apparent affinity Ki^app.
Data set [24] has as its system D179Y-containing KPC-2 variants. Type of data set: biochemical, Klebsiella pneumoniae.
In data set [25] the test system is E. coli strains expressing KPC-2^D179Y or KPC-2^D179Y/T243M. The data set can be described thus: microbe, parasite or virus in culture. It counts as cell-based. The following applies: Escherichia coli.
Data set [26] concerns Nc1nc(/C(=C/CC(=O)O)C(=O)N[C@@H]2C(=O)N3C(C(=O)O)=CCS[C@H]23)cs1. The data set can be described thus: purified protein, by the assay type. The following applies: pH 7.4.
The subject of data set [27] is CC(C)(O/N=C(\C(=O)N[C@@H]1C(=O)N2C(C(=O)[O-])=C(C[n+]3ccccc3)CS[C@H]12)c1csc(N)n1)C(=O)O. The data set can be described thus: purified protein, by the assay type. The conditions noted are these: pH 7.4.
The test system of data set [28] is CO/N=C(\C(=O)N[C@@H]1C(=O)N2C(C(=O)[O-])=C(C[N+]3(C)CCCC3)CS[C@H]12)c1csc(N)n1. The data set can be described thus: purified protein, by the assay type. The following applies: pH 7.4.

In the case of `O=C(Cc1cccs1)N[C@@H]1C(=O)N2C(C(=O)O)=C(CSc3ccc([N+](=O)[O-])c(C(=O)O)c3)CS[C@H]12` [CENTA], the Michaelis-Menten constant (Km) is 124 ± 17 µM in [1]; 2.1 ± 0.3 µM in [2]; 105 ± 24 µM in data set [3]; 54.8 ± 8.3 µM in data set [4]; 63.3 ± 2.3 µM in data set [5]; 1.9 ± 0.2 µM in [6]. Also, the Km in data set [7] (PBS pH 7.4) was found to be 19.7 ± 1.3 µM; in data set [8], 153 ± 25 µM. In addition, the kcat in data set [1] was 0.24 ± 0.02 s⁻¹; in data set [2] it was “(0.9 ± 0.04) × 10^−2 s^−1”; in data set [3] it was 38 ± 3.4 s⁻¹; in data set [4] it was 12.7 ± 1.1 s⁻¹; in data set [5], 662 ± 9.6 s⁻¹; in [6], “(1.2 ± 0.08) × 10^−2 s^−1”. Moreover, the kcat in [7] is 243 ± 11 s⁻¹; in data set [8], 0.18 ± 0.02 s⁻¹.
`Nc1nc(/C(=C/CC(=O)O)C(=O)N[C@@H]2C(=O)N3C(C(=O)O)=CCS[C@H]23)cs1` [CTB, ceftibuten]: the MIC in data set [9] worked out at 32 µg/mL (≈ 78 µM); in [10], 1 µg/mL (≈ 2.44 µM); in [11], 64 µg/mL (≈ 156 µM); in [13] it was 32 µg/mL (≈ 78 µM); in data set [14], 16 µg/mL (≈ 39 µM); in data set [15], 32 µg/mL (≈ 78 µM). The MIC in data set [16], in data set [18] and in [19] was 16 µg/mL (≈ 39 µM) in each case. Further, the results for the Ki in data set [12] and in [17] were 159 ± 10 µM and 368 ± 26 µM, respectively.
As to `CO/N=C(\C(=O)N[C@@H]1C(=O)N2C(C(=O)[O-])=C(C[N+]3(C)CCCC3)CS[C@H]12)c1csc(N)n1` [FEP, cefepime], the Km was 90 ± 31 µM in data set [1]; 3 ± 0.6 µM in data set [2]; more than 500 µM in data set [3]; more than 500 µM in data set [4]; more than 500 µM in [5]; 3.7 ± 0.7 µM in data set [6]. Besides, in data set [8], the Km is 42.5 ± 12.5 µM. For the same compound, the kcat in [1] is 38 ± 7 s⁻¹; in data set [2] it was “(1.7 ± 0.06) × 10^−2 s^−1”; in data set [6] it was “(1.5 ± 0.07) × 10^−2 s^−1”; in data set [8] it was 18.7 ± 2.3 s⁻¹. The Ki turned out to be 4.6 ± 1.2 µM in data set [20]; 1040 ± 72 µM in [21]; 3.2 ± 0.6 µM in data set [22]; 728 ± 58 µM in data set [23]; 32.9 ± 5.6 µM in [12]; 276 ± 47 µM in data set [17]. For the same compound, the MIC in data set [9] stood at 128 µg/mL (≈ 266 µM); in data set [10], 0.12 µg/mL (≈ 0.25 µM); in [11] it was 128 µg/mL (≈ 266 µM); in data set [13], 32 µg/mL (≈ 66.6 µM); in data set [14] it was 16 µg/mL (≈ 33.3 µM); in data set [15], 256 µg/mL (≈ 533 µM). Moreover, the MIC amounted to 16 µg/mL (≈ 33.3 µM) in [16], 16 µg/mL (≈ 33.3 µM) in data set [18], 16 µg/mL (≈ 33.3 µM) in data set [25] and 64 µg/mL (≈ 133 µM) in data set [19]. Also, in [24], the “weaker affinity than CAZ” value is ~ 10 fold.
For KPC-2 WT (Klebsiella pneumoniae), the figures for the kcat/Km in data set [26], in [27] and in [28] were 2200 ± 240 M⁻¹ s⁻¹, 730 ± 130 M⁻¹ s⁻¹ and 130000 ± 4000 M⁻¹ s⁻¹, respectively.

The Km is the concentration of substrate that gives half-maximal velocity. Usually kcat stands for the maximal rate divided by the concentration of active sites. The kcat/Km is the second-order rate constant that governs catalysis at low substrate concentration.
